For the experiment, the system named is CD8F1 mice, subcutaneous mammary adenocarcinoma, T/C%. Description: NCI In Vivo Anticancer Drug Screen. Data for tumor model Mammary Adenocarcinoma CD8F1 (subcutaneous) in CD8F1. The conditions noted are these: higher = larger tumour. The method, boiled down: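 Transplantable tumors were established in mice, animals were dosed with compound or vehicle, and survival or tumor size was then measured in both groups. The treated result was divided by the control result.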

Setting [1] is: endpoint: median tumor weight (est.), dose: 25.0 mg/kg/injection, schedule: Q07DX005 (ip), vehicle: saline.
The mark [2] stands for this setting: endpoint: median tumor weight (est.), dose: 50.0 mg/kg/injection, schedule: Q07DX005 (ip), vehicle: saline.
[3] abbreviates: endpoint: median tumor weight (est.), dose: 100.0 mg/kg/injection, schedule: Q07DX005 (ip), vehicle: saline.
Setting [4] is: endpoint: median tumor weight (est.), dose: 200.0 mg/kg/injection, schedule: Q07DX005 (ip), vehicle: saline.
[5] abbreviates: endpoint: median tumor weight change, dose: 250.0 mg/kg/injection, schedule: Q01DX001 (ip), vehicle: saline.
Setting [6] is: endpoint: median tumor weight (est.), dose: 3.12 mg/kg/injection, schedule: Q07DX005 (ip), vehicle: saline with Tween-80.
Where [7] appears, read: endpoint: median tumor weight (est.), dose: 6.25 mg/kg/injection, schedule: Q07DX005 (ip), vehicle: saline with Tween-80.
Setting [8] is: endpoint: median tumor weight (est.), dose: 12.5 mg/kg/injection, schedule: Q07DX005 (ip), vehicle: saline with Tween-80.
Where [9] appears, read: endpoint: median tumor weight (est.), dose: 12.5 mg/kg/injection, schedule: Q07DX005 (ip), vehicle: saline.

“And” between values parts separate entries of the source, which are not always exact repeats. Identical values can stand only once. Records with an inconclusive call do not appear.

For the compound `C/C=C(\C)C(=O)OC1C(C)C2(O)C(C=C(CO)CC3(O)C(=O)C(C)=CC32)C2C(C)(C)C12OC(=O)CCCCCCCCC` (stereo unspecified), the T/C is 91 % of control (endpoint: median tumor weight (est.), dose: 0.06 mg/kg/injection, schedule: Q07DX005 (ip), vehicle: saline + alcohol); 76 % of control (endpoint: median tumor weight (est.), dose: 0.12 mg/kg/injection, schedule: Q07DX005 (ip), vehicle: saline + alcohol); 92 % of control (endpoint: median tumor weight (est.), dose: 0.25 mg/kg/injection, schedule: Q07DX005 (ip), vehicle: saline + alcohol).

As for `CS(=O)(=O)CS(=O)(=O)OCCCl`, the T/C runs as follows: (endpoint: median tumor weight change, dose: 125.0 mg/kg/injection, schedule: Q01DX001 (ip), vehicle: suspension in saline) 56 % of control; (endpoint: median tumor weight change, dose: 250.0 mg/kg/injection, schedule: Q01DX001 (ip), vehicle: suspension in saline) 68 % of control.

In the case of `ClCC[N+]12CC[N+](CCCl)(CC1)C2` (tested in a mixture with another compound), the T/C was 75 % of control under setting [1]; 67 % of control under setting [2]; 93 % of control under setting [3]; 43 % of control under setting [4]; 43 % of control (endpoint: median tumor weight (est.), dose: 400.0 mg/kg/injection, schedule: Q07DX005 (ip), vehicle: saline); 12 % of control (endpoint: median tumor weight (est.), dose: 600.0 mg/kg/injection, schedule: Q07DX005 (ip), vehicle: saline).

As for `C=C(C)C12CC(C)C34OC(CCCCCCCCCCC)(OC1C3C1OC1(CO)C(O)C1(O)C(=O)C(C)=CC14C)O2` (stereo unspecified), the T/C is, setting by setting: (endpoint: median tumor weight (est.), dose: 100.0 micrograms/kg/injection, schedule: Q07DX005 (ip), vehicle: saline + alcohol) 58 % of control; (endpoint: median tumor weight (est.), dose: 200.0 micrograms/kg/injection, schedule: Q07DX005 (ip), vehicle: saline + alcohol) 71 % of control; (endpoint: median tumor weight (est.), dose: 400.0 micrograms/kg/injection, schedule: Q07DX005 (ip), vehicle: saline + alcohol) 49 % of control.

As to `Cc1nnc2ncccn12`, under setting [5], the T/C was 92 % of control.

Take `Cc1cc(N(CC(C)Br)CC(C)Br)ccc1N=Nc1ccccc1C(=O)O` (stereo unspecified): the T/C is 79 % of control (endpoint: median tumor weight (est.), dose: 1.56 mg/kg/injection, schedule: Q07DX005 (ip), vehicle: saline with Tween-80); 94 % of control under setting [6]; 68 % of control under setting [7]; 47 % of control under setting [8]; 23 % of control (endpoint: median tumor weight (est.), dose: 25.0 mg/kg/injection, schedule: Q07DX005 (ip), vehicle: saline with Tween-80).

Consider `CC(=O)C1=C(O)C2(O)C(=O)c3c(c(C)c4ccc(C)c(O)c4c3O)CC2C(N)C1=O` (stereo unspecified), for which the T/C by setting is: (endpoint: median tumor weight change, dose: 37.5 mg/kg/injection, schedule: Q01DX001 (ip), vehicle: saline + alcohol) 72 % of control; (endpoint: median tumor weight change, dose: 38.0 mg/kg/injection, schedule: Q01DX001 (ip), vehicle: saline + alcohol) 100 % of control; (endpoint: median tumor weight change, dose: 75.0 mg/kg/injection, schedule: Q01DX001 (ip), vehicle: saline + alcohol) 46 % of control and 60 % of control; (endpoint: median tumor weight change, dose: 150.0 mg/kg/injection, schedule: Q01DX001 (ip), vehicle: saline + alcohol) 49 % of control.

For `c1cc[c]([Sn][c]2ccccc2)cc1`, the T/C (endpoint: median tumor weight (est.), dose: 1.25 mg/kg/injection, schedule: Q07DX005 (ip), vehicle: saline) is 101 % of control; the T/C (endpoint: median tumor weight (est.), dose: 2.5 mg/kg/injection, schedule: Q07DX005 (ip), vehicle: saline) was 91 % of control; the T/C (endpoint: median tumor weight (est.), dose: 5.0 mg/kg/injection, schedule: Q07DX005 (ip), vehicle: saline) was 86 % of control; the T/C (endpoint: median tumor weight (est.), dose: 10.0 mg/kg/injection, schedule: Q07DX005 (ip), vehicle: saline) was 68 % of control; the T/C (endpoint: median tumor weight (est.), dose: 20.0 mg/kg/injection, schedule: Q07DX005 (ip), vehicle: saline) is 50 % of control.

In the case of `C1CN2CCC1CC2`, the T/C is, setting by setting: under setting [7], 111 % of control; under setting [8], 77 % of control.

As to `CC(=O)C(=O)O.CC(=O)C(=O)O.[NH-]C1CCCCC1[NH-].[Pt+2]` (stereo unspecified), the T/C (endpoint: median tumor weight change, dose: 15.0 mg/kg/injection, schedule: Q01DX001 (ip), vehicle: dextrose) is 70 % of control; the T/C (endpoint: median tumor weight change, dose: 30.0 mg/kg/injection, schedule: Q01DX001 (ip), vehicle: dextrose) was 79 % of control; the T/C (endpoint: median tumor weight change, dose: 60.0 mg/kg/injection, schedule: Q01DX001 (ip), vehicle: dextrose) was 51 % of control; the T/C (endpoint: median tumor weight change, dose: 62.5 mg/kg/injection, schedule: Q01DX001 (ip), vehicle: dextrose) was -38 % of control; the T/C (endpoint: median tumor weight change, dose: 120.0 mg/kg/injection, schedule: Q01DX001 (ip), vehicle: dextrose) was 45 % of control.

On to `COc1cc2c(cc1O)N=C[C@@H]1CCC(O)N1C2=O` (mixture of isomers), for which the T/C was 103 % of control (endpoint: median tumor weight (est.), dose: 2.0 mg/kg/injection, schedule: Q07DX005 (ip), vehicle: saline); 79 % of control (endpoint: median tumor weight (est.), dose: 4.0 mg/kg/injection, schedule: Q07DX005 (ip), vehicle: saline); 160 % of control (endpoint: median tumor weight (est.), dose: 8.0 mg/kg/injection, schedule: Q07DX005 (ip), vehicle: saline).

With `Cc1ccc(NCCN(C)C)c2c(=O)c3cc(O)ccc3sc12`, the T/C (endpoint: median tumor weight change, dose: 250.0 mg/kg/injection, schedule: Q01DX001 (ip), vehicle: Klucel (hydroxypropylcellulose) (HPC)) is -8 % of control and 15 % of control; the T/C (endpoint: median tumor weight change, dose: 500.0 mg/kg/injection, schedule: Q01DX001 (ip), vehicle: Klucel (hydroxypropylcellulose) (HPC)) is -6 % of control.

Consider `COc1ccc([I+]c2cccc(Cl)c2)cc1Cl`, for which the T/C was 189 % of control under setting [6]; 34 % of control under setting [8]; 111 % of control (endpoint: median tumor weight (est.), dose: 50.0 mg/kg/injection, schedule: Q07DX005 (ip), vehicle: saline with Tween-80).

As to `CC1=CC(C)(C)Nc2ccc(CSc3ccccc3)cc21`, the T/C runs as follows: (endpoint: median tumor weight change, dose: 50.0 mg/kg/injection, schedule: Q01DX001 (ip), vehicle: saline + Tween-80 + alcohol) 46 % of control; (endpoint: median tumor weight change, dose: 62.0 mg/kg/injection, schedule: Q01DX001 (ip), vehicle: DMSO) 37 % of control; (endpoint: median tumor weight change, dose: 100.0 mg/kg/injection, schedule: Q01DX001 (ip), vehicle: saline + Tween-80 + alcohol) 37 % of control; (endpoint: median tumor weight change, dose: 125.0 mg/kg/injection, schedule: Q01DX001 (ip), vehicle: DMSO) 38 % of control; (endpoint: median tumor weight change, dose: 200.0 mg/kg/injection, schedule: Q01DX001 (ip), vehicle: saline + Tween-80 + alcohol) 47 % of control; (endpoint: median tumor weight change, dose: 250.0 mg/kg/injection, schedule: Q01DX001 (ip), vehicle: DMSO) 29 % of control. The T/C is 46 % of control (endpoint: median tumor weight change, dose: 400.0 mg/kg/injection, schedule: Q01DX001 (ip), vehicle: saline + Tween-80 + alcohol); 32 % of control (endpoint: median tumor weight change, dose: 800.0 mg/kg/injection, schedule: Q01DX001 (ip), vehicle: saline + Tween-80 + alcohol); 61 % of control (endpoint: median tumor weight change, dose: 2000.0 mg/kg/injection, schedule: Q01DX001 (ip), vehicle: DMSO).

As for `C[PH+](C)C.C[PH+](C)C.[Au]`, the T/C reads like this: (endpoint: median tumor weight change, dose: 1.5 mg/kg/injection, schedule: Q01DX001 (ip), vehicle: saline) 112 % of control; (endpoint: median tumor weight change, dose: 3.0 mg/kg/injection, schedule: Q01DX001 (ip), vehicle: saline) 77 % of control; (endpoint: median tumor weight change, dose: 3.12 mg/kg/injection, schedule: Q01DX001 (ip), vehicle: saline) 95 % of control; (endpoint: median tumor weight change, dose: 12.5 mg/kg/injection, schedule: Q01DX001 (ip), vehicle: saline) 60 % of control and 80 % of control.

Consider `C=C(C)/C([O-])=N/[N+](C)(C)CC(O)CCCCCCCCCCCC` (stereo unspecified), for which the T/C is, setting by setting: (endpoint: median tumor weight change, dose: 125.0 mg/kg/injection, schedule: Q01DX001 (ip), vehicle: saline) 63 % of control; under setting [5], 111 % of control.

As for `O=C1C=CN(C2OC(CO)C(O)C2O)C(=O)C1` (stereo unspecified), the T/C by setting is: under setting [9], 97 % of control; under setting [1], 99 % of control; under setting [2], 101 % of control; under setting [3], 120 % of control; under setting [4], 78 % of control.

In the case of `ClCc1ccc2ccccc2n1`, the T/C runs as follows: (endpoint: median tumor weight change, dose: 62.5 mg/kg/injection, schedule: Q01DX001 (ip), vehicle: saline with Tween-80) 69 % of control; (endpoint: median tumor weight change, dose: 125.0 mg/kg/injection, schedule: Q01DX001 (ip), vehicle: saline with Tween-80) 54 % of control; (endpoint: median tumor weight change, dose: 250.0 mg/kg/injection, schedule: Q01DX001 (ip), vehicle: saline with Tween-80) 76 % of control.

For `OCC1OC(n2cnc3cncnc32)C(O)C1O` (stereo unspecified), the T/C reads like this: (endpoint: median tumor weight (est.), dose: 3.12 mg/kg/injection, schedule: Q07DX005 (ip), vehicle: saline) 114 % of control; (endpoint: median tumor weight (est.), dose: 6.25 mg/kg/injection, schedule: Q07DX005 (ip), vehicle: saline) 59 % of control; under setting [9], 65 % of control.

For the compound `C=CC12COC(=O)C(=C)C1C1OC(=O)C(=C)C1C(O)C2` (stereo unspecified), under “endpoint: mean tumor weight, dose: 5.0 mg/kg/injection, schedule: Q07DX006 (ip), vehicle: saline”, the T/C was 78 % of control.

(Values after PubChem BioAssay AID220 (DTP/NCI, 2004).)
